Test results taken from patent US20250122253A1, “REGULATING MICROTUBULE DYNAMICS AS A THERAPEUTIC TARGET FOR NERVE REPAIR” (City University of Hong Kong, priority 2023, published 2025).

Key:
[1] = test system: sensory function of injured hindlimb; assay: Pinprick assay (sensory function recovery) after sciatic nerve crush; type: in vivo, mice
Procedure: (§1) Adult male Fmn2^−/− mice (8-12 weeks old) and their age-matched WT littermates, or adult male C57BL/6 mice (for whole-body X-ray, AAV2/9-Fmn2-shRNA and metaxalone experiments) were trained and habituated one week before the sciatic nerve crush injury. After three independent training sessions (30 minutes per session with two days break), baseline values were taken, and sciatic nerve crush injury were performed one day after the baseline recordings. Function recovery was monitored for 30 days. On day 3 after the sciatic nerve crush, we first perform pinprick assay and followed by motor function assays every other day in a sequential manner (toe spreading, grip strength, and sciatic functional index) with 30 mins apart from each test. Animal behavioural tests were done blinded to the surgery and genotypes.
Mice were placed singly in small wire-mesh cages for 30-minutes habituation, an insect pin (Fine Science Tools) were applied to the lateral plantar surface of the ipsilateral hindlimb from toe to heel. The lateral planar surface was divided into 5 different areas, from the most distal toe (score=5) to the heel (score=1). The mouse was scored for that area if a brisk withdrawal response of hind paw was observed. The mouse was scored 0 if no withdrawal responses were observed after insect pin was applied to all 5 areas. Saphenous innervated area of the same hindlimb was tested as a positive control if there was no positive response from these five areas. Two rounds of pinprick assay were performed (with a 30-minute time interval) in each mouse to confirm the score.
(§2) To examine the therapeutic potential of metaxalone, adult mice received daily intraperitoneal injection of metaxalone at 10 mg/kg immediately after injury for 21 consecutive days (i.e., metaxalone treatment) or delaying daily intraperitoneal injection of metaxalone at 10 mg/kg to 24 hours post-injury for 20 consecutive days (i.e., delayed metaxalone treatment), and all metaxalone treatments ended on day 21 post-injury. The mice were then subjected to sensory and motor function recovery tests and weekly EMG recordings for 28 days post-injury.

axotomized DRG neurons = assay: Neurite outgrowth assay in dissociated DRG cultures; type: cell-based, mice; details: increasing dose; neurite outgrowth increased almost linearly
Procedure: Primary cultures of dissociated DRG neurons were prepared from adult male C57BL/6 or Fmn2^−/− mice (8-12 weeks old) and their age-matched WT littermates as described. Briefly, DRGs were dissected out from the mice and mildly digested in collagenase/dispase II (Roche Diagnostics) solution, trypsinized and mechanically dissociated using flame polished Pasteur pipettes with three different diameters. DRG neurons were incubated in full NB medium.
For ex vivo DRG explant culture, non-overlapping quadrant images were taken from each DRG explant, and total neurite length was measured using automated WIS-NeuroMath software (Weizmann Institute of Science). Data were obtained from at least 3 separate experiments with n=8 explants per dose. […] Total neurite length and average longest neurite length were quantified using automated WIS-NeuroMath software (Weizmann Institute of Science). Data was obtained from 3 independent experiments repeated in duplicates. βIII-tubulin-positive DRG neurons with intact neurites adjacent to the neuronal cell bodies were counted as healthy neurons for neurite outgrowth assay.

[2] = test system: motor function of injured hindlimb; assay: Toe spreading reflex (motor function recovery) after sciatic nerve crush; type: in vivo, mice
Procedure: as §1
To assess toe spreading reflex following PNI, mice were covered by a piece of cotton, lifted up by the tails, and uncovered their hindlimbs for assessment. Toe spreading reflex was scored as follow: 0 for no spreading, 1 for intermediate spreading with all toes separated for less than 2 seconds, and 2 for full spreading with all toes completely and widely spread, and sustained for at least two seconds. Mice were scored only when a full response was observed on the contralateral side (uninjured hindlimbs). Mice were assessed twice with 30-minute time interval in between.
as §2

pHDAC5 = assay: Western blot of pHDAC5 in sciatic nerve segments 0-6 mm distal to the crush site; type: in vivo, mice; details: regenerating axons of sciatic nerves 3 days post-injury
Procedure: (§3) Ipsilateral L4/5 DRG neurons were harvested at various time points following sciatic nerve injury as indicated. Sciatic nerves were harvested 3 days after crush injury and segmented into 0-6 mm distal to the crush site. Each protein sample was pooled from 3 mice. DRG neurons and segmented sciatic nerves were mechanically dissociated with protein lysis buffer, and subjected to measurement of protein concentration using protein BCA assay (Pierce). Protein lysate (30 μg) was separated on 4-12% NuPAGE Tris-Glycine precast gel (Invitrogen). Protein was then transferred onto a PVDF membrane (Bio-Rad) and blocked with 5% non-fat milk (Bio-Rad) in TBS-T. The membrane was incubated with anti-FMN2 (1:500; ProteinTech), anti-phosphorylated HDAC5 (1:500, ThermoFisher), anti-HDAC5 (1:500, Novus Biologicals), anti-acetylated tubulin (1:10,000; Sigma-Aldrich), anti-NeuN (1:500; Millipore), anti-SOX10 (1:500; Abcam), anti-IBA-1 (1:1,000; Wako), anti-GFP (1:1,000; Cell Signaling), and anti-GAPDH antibodies (1:2,000; ProteinTech) as loading controls. The membrane was incubated with secondary antibody conjugated with horseradish peroxidase (1:2,000; Thermo-Fisher). Signals were detected using West Femto Maximum Sensitivity Substrate Kit (Thermo Scientific). […] Band intensities were measured using Image Lab software (Bio-Rad). […]

acetylated tubulin = assay: Western blot of acetylated tubulin/total tubulin in sciatic nerve segments 0-6 mm distal to the crush site; type: in vivo, mice; details: regenerating axons of sciatic nerves 3 days post-injury
Procedure: as §3

hindlimb muscle strength = assay: Hindlimb grip strength measurement after sciatic nerve crush; type: in vivo, mice; details: from day 11 to 23
Procedure: as §1
Muscle strength from hindlimbs were measured using a grip strength meter (BIO-GS3, Bioseb). To measure the grip strength of both hindlimbs, their hindlimbs were positioned to grip a metal T-bar connected to the grip strength meter, while their forelimbs were rested on a plastic bar. The mice were then gently pulled off from the T-bar. The values at which the mouse left the T-bar reflected the grip strength in grams. The average grip strength was taken from at least 5 consecutive grip strength measurements per animal. […]

[3] = 10 mg/kg intraperitoneally delayed to 24 hours post-injury
[4] = 10 mg/kg intraperitoneally immediately after PNI

Structure (SMILES): Cc1cc(C)cc(OCC2CNC(=O)O2)c1 (stereo not drawn) [metaxalone]
- initial response to pinprick stimuli (reaching score 1), delayed treatment ([1]; 10 mg/kg intraperitoneally daily, delayed to 24 hours post-injury, 20 days): 10 day post-injury
- full sensory pinprick response regained earlier than vehicle controls, delayed treatment [1, 3]: 2 days
- full sensory pinprick response regained earlier than vehicle controls [1, 4]: 4 days
- initial response to pinprick stimuli (reaching score 1) ([1]; 10 mg/kg intraperitoneally once a day immediately after PNI for 21 days): 9 day post-injury
- concentration at which neurite outgrowth reaches a plateau (axotomized DRG neurons): 20 µM
- additional time vs metaxalone-treated mice to recover 50% and to fully regain toe spreading reflex, delayed treatment [2, 3]: 1 days
- time to fully regain toe spreading reflex [2, 4]: 19 days
- time to recover 50% of toe spreading reflex (reaching score 1) [2, 4]: 14 days
- protein expression of pHDAC5 (pHDAC5): substantial increase
- tubulin acetylation (acetylated tubulin): reduction of tubulin acetylation
- hindlimb grip strength recovery vs controls (hindlimb muscle strength; immediate treatment 10 mg/kg): significantly higher
- hindlimb grip strength recovery vs controls, delayed treatment (hindlimb muscle strength; treatment delayed 24 hours, 10 mg/kg): significantly higher
